As a reminder, the inhibition is how much of the control response was suppressed. For orientation: ED50 means the dose at which the effect has come halfway, by size or by number of responders. As usually defined, the TD50 is the 50% point of the dose-response relation for the toxic effect studied.

SMILES strings stand for the structures. The source made the active and inactive calls. The calls are words filed in the database; no cut-off is given here.

Data set [1] is filed under the species Homo sapiens. Briefly: Inhibition of N-type calcium channel (unknown origin).
In data set [2] the test system is Mus musculus. Briefly: Anticonvulsant activity in ip dosed albino CD1 mouse assessed as protection against subcutaneous pentylenetetrazole-induced seizures by measuring time to peak effect. The format is functional.
For data set [3], the system named is Mus musculus. Briefly: Anticonvulsant activity in ip dosed albino CD1 mouse assessed as protection against maximal electroshock-induced seizures by measuring time to peak effect. It is filed as functional. Background: Protection in the maximal electroshock model is a classic sign of anticonvulsant action.
Data set [4] deals with Mus musculus. Briefly: Anticonvulsant activity in albino CD1 mouse assessed as protection against 32 mA current-induced seizure at 100 mg/kg, ip after 0.5 hrs by 6 Hz psychomotor test. It is filed as functional.
In data set [5] the test system is Mus musculus. The experiment in a line: Protection index, ratio of TD50 for motor impairment in ip dosed albino CD1 mouse to ED50 for protection against maximal electroshock-induced seizures in ip dosed albino CD1 mouse.
The test system of data set [6] is Mus musculus. Briefly: Neurotoxicity in ip dosed albino CD1 mouse assessed as minimum dose required to induce motor impairment in half and more mouse measured after 4 hrs by rotarod test. The format is toxicity, organism-based. The settings on record: in vivo. On the technique in general: In the rotarod test animals must keep their balance on a rotating rod.
The test system of data set [7] is Mus musculus. Briefly: Anticonvulsant activity in ip dosed albino CD1 mouse assessed as protection against maximal electroshock-induced seizures. It is filed as functional.
Data set [8] concerns Mus musculus. Briefly: Anticonvulsant activity in ip dosed albino CD1 mouse assessed as minimum dose required to protect maximal electroshock-induced seizures in half and more mouse measured after 0.5 hrs. The format is functional.
For data set [9], the system named is Mus musculus. The experiment in a line: Anticonvulsant activity in albino CD1 mouse assessed as protection against subcutaneous pentylenetetrazole-induced seizures at 300 mg/kg, ip measured after 0.5 hrs. It is filed as functional, organism-based.
The test system of data set [10] is Mus musculus. The experiment in a line: Anticonvulsant activity in ip dosed albino CD1 mouse assessed as protection against subcutaneous pentylenetetrazole-induced seizures. The format is functional.
Data set [11] concerns Mus musculus. Briefly: Anticonvulsant activity in albino CD1 mouse assessed as protection against maximal electroshock-induced seizures at 300 mg/kg, ip measured after 4 hrs. It is filed as functional, organism-based.
Data set [12] concerns Mus musculus. Briefly: Protection index, ratio of TD50 for motor impairment in ip dosed albino CD1 mouse to ED50 for protection against subcutaneous pentylenetetrazole-induced seizures in ip dosed albino CD1 mouse.
The species entered for data set [13] is Rattus norvegicus. Briefly: Inhibition of [3H]-BTX binding to voltage-sensitive Na+ channel site 2 in Sprague-Dawley rat cerebral cortex synaptoneurosomes at 100 uM after 60 mins by liquid scintillation spectroscopic method relative to control.
The subject of data set [14] is Mus musculus. Briefly: Anticonvulsant activity in ip dosed albino CD1 mouse assessed as minimum dose required to protect subcutaneous pentylenetetrazole-induced seizures in half and more mouse measured after 4 hrs. The format is functional.
A short description of data set [15]: Neurotoxicity in ip dosed albino CD1 mouse assessed as motor impairment by rotarod test. It is filed as toxicity, organism-based. The settings on record: in vivo.
Data set [16] has as its system Mus musculus. Briefly: Protection index, ratio of TD50 for motor impairment in ip dosed albino CD1 mouse to ED50 for protection against 32 mA current-induced seizure in ip dosed albino CD1 mouse by 6 Hz psychomotor test.
Data set [17] relates to Mus musculus. Briefly: Neurotoxicity in ip dosed albino CD1 mouse assessed as minimum dose required to induce motor impairment in half and more mouse measured after 0.5 hrs by rotarod test. It is filed as toxicity, organism-based. The settings on record: in vivo.
Data set [18] deals with Mus musculus. The experiment in a line: Anticonvulsant activity in ip dosed albino CD1 mouse assessed as protection against 32 mA current-induced seizure by 6 Hz psychomotor test. The format is functional.
Data set [19] deals with Mus musculus. The experiment in a line: Anticonvulsant activity in ip dosed albino CD1 mouse assessed as minimum dose required to protect maximal electroshock-induced seizures in half and more mouse measured after 4 hrs. It is filed as functional.
Data set [20] deals with Mus musculus. The experiment in a line: Anticonvulsant activity in ip dosed albino CD1 mouse assessed as minimum dose required to protect subcutaneous pentylenetetrazole-induced seizures in half and more mouse measured after 0.5 hrs. The format is functional.
Data set [21] concerns Mus musculus. The experiment in a line: Neurotoxicity in albino CD1 mouse assessed as motor impairment at 300 mg/kg, ip measured after 4 hrs by rotarod test. The following applies: in vivo. The format is toxicity, organism-based.
The test system of data set [22] is Mus musculus. The experiment in a line: Anticonvulsant activity in albino CD1 mouse assessed as protection against subcutaneous pentylenetetrazole-induced seizures at 300 mg/kg, ip measured after 4 hrs. The format is functional, organism-based.
The subject of data set [23] is Mus musculus. The experiment in a line: Anticonvulsant activity in albino CD1 mouse assessed as protection against 32 mA current-induced seizure at 100 mg/kg, ip after 4 hrs by 6 Hz psychomotor test. It is filed as functional, organism-based.
For data set [24], the system named is Mus musculus. The experiment in a line: Anticonvulsant in ip dosed CD1 mouse assessed as time to peak effect. It is filed as functional.
In data set [25] the test system is Mus musculus. Briefly: Neurotoxicity in albino CD1 mouse assessed as motor impairment at 300 mg/kg, ip measured after 0.5 hrs by rotarod test. It is filed as toxicity, organism-based. The following applies: in vivo.
The subject of data set [26] is Mus musculus. The experiment in a line: Anticonvulsant activity in albino CD1 mouse assessed as protection against maximal electroshock-induced seizures at 300 mg/kg, ip measured after 0.5 hrs. It is filed as functional, organism-based.
Data set [27] relates to Mus musculus. The experiment in a line: Anticonvulsant activity in albino CD1 mouse assessed as protection against 32 mA current-induced seizure incidents at 100 mg/kg, ip after 0.5 hrs by 6 Hz psychomotor test. It is filed as functional.

For `O=C1CC(C(c2ccccc2)c2ccccc2)C(=O)N1CN1CCOCC1` (stereo unspecified), in data set [1], the inhibition result is “inactive”. The Time in data set [2] is 4 h; in [3], 0.5 h. For the same compound, the Activity in data set [4] was found to be 100%; in data set [6] it was 300 mg/kg; in data set [8], 100 mg/kg; in [14] it was 100 mg/kg; in data set [17] it was 300 mg/kg. The entries for the “Ratio TD50/ED50” value in data set [5], in [12] and in data set [16] were 6.2, 2.5 and 5.59, respectively. The ED50 in data set [7] turned out to be 41 mg/kg; in data set [10], 102 mg/kg; in data set [18], 45.4 mg/kg. Also, the result in [9] and in data set [11] was inactive. In [13], this compound yielded an inhibition of 29.9%. In addition, the TD50 in data set [15] is 254 mg/kg.
As to `CN1CCN(CN2C(=O)CC(C(c3ccccc3)c3ccccc3)C2=O)CC1` (stereo unspecified), the Activity in data set [4] was 100%; in [19], 300 mg/kg; in [20], 100 mg/kg; in data set [8], 300 mg/kg; in data set [21], “Non-Toxic”; in [17], 300 mg/kg. The 50% effective dose (ED50) in data set [10] was determined as 75.6 mg/kg; in data set [18] it was 39.2 mg/kg. The outcome in [22] was inactive. The “Ratio TD50/ED50” value in data set [12] was found to be 3.26; in [16], 6.28. The TD50 in data set [15] was determined as 247 mg/kg. Further, the outcome in data set [23] was Active. In addition, the Time in data set [24] amounted to 0.5 h.
Regarding `CC(C)C1CC(=O)N(CN2CCN(CCO)CC2)C1=O` (stereo unspecified), the Activity result in data set [25] was “Non-Toxic”; in data set [19], 300 mg/kg; in data set [21], “Non-Toxic”; in [14] it was 300 mg/kg. Further, the result in [9] and in [26] was inactive.
Consider `O=C1CC(C(c2ccccc2)c2ccccc2)C(=O)N1CN1CCN(CCO)CC1` (stereo unspecified), for which the Activity in [27] is 66%; in [19] it was 300 mg/kg; in [20] it was 100 mg/kg; in data set [8], 300 mg/kg; in data set [21] it was “Non-Toxic”; in data set [14] it was 100 mg/kg. Besides, the Activity in data set [17] came to 300 mg/kg. Also, the 50% effective dose (ED50) in data set [10] was determined as 83.1 mg/kg; in data set [18], 51.7 mg/kg. Also, the “Ratio TD50/ED50” value was found to be 2.67 in data set [12] and 4.29 in data set [16]. Also, the TD50 in data set [15] was found to be 222 mg/kg. In addition, the Time in data set [24] is 0.5 h.

Values taken from ChEMBL document CHEMBL3997820, “Synthesis and evaluation of anticonvulsant properties of new N-Mannich bases derived from pyrrolidine-2,5-dione and its 3-methyl-, 3-isopropyl, and 3-benzhydryl analogs” (Bioorg Med Chem Lett, 2017).
